The nature of data set [1]: vapor pressure of the adduct. It is filed as physicochemical. The note with it: resulting in little or no odor. The source says:
(§1) Diacetyl is known to form an adduct with sodium hydrogen sulfite [2-butanesulfonic acid, 2-hydroxy-3-oxo-, monosodium salt—CAS 13489-36-6]. See also French patent 2,845,903. This adduct is in equilibrium with the starting materials and, in practice, releases small amounts of diacetyl and sulfite continuously. The above-mentioned French patent discloses that the adduct is useful in hair care products as a straightening agent. The vapor pressure of the diacetyl adduct is negligible, thereby resulting in little or no odor. It is usually obtained and used in the form of a water-soluble salt, such as, e.g., an alkali metal (sodium) salt. Since it is water soluble, it can therefore be sprayed directly onto foodstuffs safely. The flavor imparted by the adduct is dominated by diacetyl, since at low concentrations, the sulfite taste and flavor is imperceptible.

Data set [2] can be described thus: water solubility of the adduct. The note with it: water-soluble salt, e.g. alkali metal (sodium) salt. It counts as physicochemical.
From the text: as §1

In the case of `CC(=O)C(C)(O)S(=O)(=O)[O-].[Na+]` (centres unmarked) [diacetyl adduct, 2-butanesulfonic acid, 2-hydroxy-3-oxo-, monosodium salt], the vapor pressure result in data set [1] is listed as “negligible”. In data set [2], the water solubility result is recorded as “water soluble”.
